Results from US12661410B2, “Compounds for targeted degradation of RET” (C4 Therapeutics, Inc., priority 2020, dated 2026).
Where a chain is given by its changes, count along the chain named. Like-named read-outs stand apart in the source and are kept apart here.

Tests used:
RET(KD: 658-1114 G810R) = target: T1, RET(KD: 658-1114 G810R) (Homo sapiens, UniProt P07949, G810R); assay: HiBiT-Degradation, RET G810R degradation assay (Nano-Glo HiBiT Lytic), 293T.165 cells; type: cell-based; details: for Emax / DC50: 6.0 hours
T1 construct: 658-1114; expressed in transfected cells; host or cells: 293T.165 (293T cells, generated in-house)
T1 sequence (P07949 658-1114 G810R): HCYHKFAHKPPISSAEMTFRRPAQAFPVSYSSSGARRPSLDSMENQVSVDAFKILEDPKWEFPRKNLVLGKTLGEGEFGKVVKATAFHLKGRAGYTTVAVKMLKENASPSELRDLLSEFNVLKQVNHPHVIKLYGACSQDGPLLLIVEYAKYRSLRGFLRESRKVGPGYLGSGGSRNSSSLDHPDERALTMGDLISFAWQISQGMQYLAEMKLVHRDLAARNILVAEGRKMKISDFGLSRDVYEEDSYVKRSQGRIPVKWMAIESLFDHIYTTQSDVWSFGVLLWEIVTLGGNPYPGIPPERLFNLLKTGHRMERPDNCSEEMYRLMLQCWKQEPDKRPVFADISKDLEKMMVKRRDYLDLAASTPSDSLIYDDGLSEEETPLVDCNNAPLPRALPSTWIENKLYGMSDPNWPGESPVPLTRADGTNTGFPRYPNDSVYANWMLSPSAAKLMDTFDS
In short: (§1)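 6 h treatment, 293T.144 (WT) / 293T.165 (G810R) cells ectopically expressing HiBiT-fused RET KD; 11-pt half-log dilution, top 10 μM, n=2. Nano-Glo HiBiT lytic detection, luminescence. Output: DC50, Emax (% protein remaining).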

RET (658-1114) = target: T2, RET (658-1114) (Homo sapiens, UniProt P07949); assay: HiBiT-Degradation, RET wild-type degradation assay (Nano-Glo HiBiT Lytic), 293T.144 cells; type: cell-based; details: for DC50 / Emax: 6.0 hours
T2 construct: 658-1114; expressed in transfected cells; host or cells: 293T.144 (293T cells, generated in-house)
T2 sequence (P07949 658-1114): T1 sequence (P07949 658-1114 G810R) with R153G
In short: as §1

[1] = % remaining protein, read-out: 293T.165 RET(KD: 658-1114 G810R) 6.0 hours (Emax)
[2] = half-maximal degradation concentration, read-out: 293T.165 RET(KD: 658-1114 G810R) 6.0 hours (DC50)
[3] = % remaining protein, read-out: 293T.144 RET (658-1114) 6.0 hours (Emax)
[4] = half-maximal degradation concentration, read-out: 293T.144 RET (658-1114) 6.0 hours (DC50)

Row | Emax (RET(KD: 658-1114 G810R); [1]) [%] | DC50 (RET(KD: 658-1114 G810R); [2]) [nM] | 293T.165 RET(KD: 658-1114 G810R) 6.0 hours (Emax) (RET(KD: 658-1114 G810R); HiBiT-Degradation) | 293T.165 RET(KD: 658-1114 G810R) 6.0 hours (IP) [nM] (RET(KD: 658-1114 G810R); HiBiT-Degradation) | DC50 (RET(KD: 658-1114 G810R); HiBiT-Degradation, read-out: 293T.165 RET(KD: 658-1114 G810R) 6.0 hours (DC50)) [nM] | 293T.144 RET (658-1114) 6.0 hours (IP) [nM] (RET (658-1114); HiBiT-Degradation) | DC50 (RET (658-1114); HiBiT-Degradation, read-out: 293T.144 RET (658-1114) 6.0 hours (DC50)) [nM] | Emax (RET (658-1114); HiBiT-Degradation, read-out: 293T.144 RET (658-1114) 6.0 hours (Emax)) [%] | 293T.165 RET(KD: 658-1114 G810R) 6.0 hours (IP) [nM] (RET(KD: 658-1114 G810R)) | 293T.144 RET (658-1114) 6.0 hours (IP) [nM] (RET (658-1114)) | Emax (RET (658-1114); [3]) [%] | DC50 (RET (658-1114); [4]) [nM] | HiBiT-Degradation 293T.165 RET(KD: 658-1114 G810R) 6.0 hours (IP) [nM] (RET(KD: 658-1114 G810R); RET G810R) | DC50 (RET(KD: 658-1114 G810R); RET G810R, read-out: HiBiT-Degradation 293T.165 RET(KD: 658-1114 G810R) 6.0 hours (DC50)) [nM] | Emax (RET(KD: 658-1114 G810R); RET G810R, read-out: HiBiT-Degradation 293T.165 RET(KD: 658-1114 G810R) 6.0 hours (Emax)) [%] | HiBiT-Degradation 293T.144 RET (658-1114) 6.0 hours (IP) [nM] (RET (658-1114); RET wild-type) | DC50 (RET (658-1114); RET wild-type, read-out: HiBiT-Degradation 293T.144 RET (658-1114) 6.0 hours (DC50)) [nM] | Emax (RET (658-1114); RET wild-type, read-out: HiBiT-Degradation 293T.144 RET (658-1114) 6.0 hours (Emax)) [%] | SMILES
1 | < 50 | < 100 | +++ (<50% = +++) | ++++ (< 50 nM = ++++) | < 100 | ++++ (< 50 nM = ++++) | < 50 | < 30 | – | – | – | – | – | – | – | – | – | – | CC(C)NC(=O)C1(C(C)C)CCN(c2ccc(-c3cc(-c4cnn(C5CCN(C(=O)CN6CCC(c7ccc(NC8CCC(=O)NC8=O)cc7F)CC6)CC5)c4)cn4ncc(C#N)c34)cn2)CC1 (stereo not shown) [Compound 56, 1-[5-[3-cyano-6-[1-[1-[2-[4-[4-[(2,6-dioxo-3-piperidyl)amino]-2-fluoro-phenyl]-1-piperidyl]acetyl]-4-piperidyl]pyrazol-4-yl]pyrazolo[1,5-a]pyridin-4-yl]-2-pyridyl]-N,4-diisopropyl-piperidine-4-carboxamide]
2 | < 30 | < 50 | – | – | – | – | – | – | ++++ (<50 nM = ++++) | ++++ (<50 nM = ++++) | < 30 | < 50 | – | – | – | – | – | – | N#Cc1cnn2cc(-c3cnn([C@H]4CC[C@H](N5CCC(c6ccc(N[C@@H]7CCC(=O)NC7=O)cc6F)CC5)CC4)c3)nc(-c3ccc(N4CCC5(CC4)OCc4cccnc45)nc3)c12 (relative stereo) [Compound 149, 6-[1-[4-[4-[2-fluoro-4-[[rac-(3R)-2,6-dioxo-3-piperidyl]amino]phenyl]-1-piperidyl]cyclohexyl]pyrazol-4-yl]-4-(6-spiro[5H-furo[3,4-b]pyridine-7,4′-piperidine]-1′-yl-3-pyridyl)pyrazolo[1,5-a]pyrazine-3-carbonitrile]
3 | < 50 | < 50 | – | – | – | – | – | – | ++++ (<50 nM = ++++) | ++++ (<50 nM = ++++) | < 30 | < 50 | – | – | – | – | – | – | CCC1(C(=O)NC(C)C)CCN(c2ccc(-c3nc(-c4cnn(C5CCC6(CC5)CN(C(=O)CC5(O)CCN(c7ccc(NC8CCC(=O)NC8=O)cc7F)CC5)C6)c4)cn4ncc(C#N)c34)cn2)CC1 (stereo not shown) [Compound 182, 1-(5-(3-Cyano-6-(1-(2-(2-(1-(4-((2,6-dioxopiperidin-3-yl)amino)-2-fluorophenyl)-4-hydroxypiperidin-4-yl)acetyl)-2-azaspiro[3.5]nonan-7-yl)-1H-pyrazol-4-yl)pyrazolo[1,5-a]pyrazin-4-yl)pyridin-2-yl)-4-ethyl-N-isopropylpiperidine-4-carboxamide]
4 | < 30 | < 50 | – | – | – | – | – | – | – | – | – | – | ++++ (< 50 nM = ++++) | < 50 | < 30 | ++++ (< 50 nM = ++++) | < 50 | < 30 | CCC1(C(=O)NC2CCC2)CCN(c2ccc(-c3nc(-c4cnn(C5CCN(C(=O)CC6(O)CCN(c7ccc(NC8CCC(=O)NC8=O)cc7F)CC6)CC5)c4)cn4ncc(C#N)c34)cn2)CC1 (stereo not shown) [Compound 81, 1-[5-[3-cyano-6-[1-[1-[2-[1-[4-[(2,6-dioxo-3-piperidyl)amino]-2-fluoro-phenyl]-4-hydroxy-4-piperidyl]acetyl]-4-piperidyl]pyrazol-4-yl]pyrazolo[1,5-a]pyrazin-4-yl]-2-pyridyl]-N-cyclobutyl-4-ethyl-piperidine-4-carboxamide]
5 | < 30 | < 50 | – | – | – | – | – | – | ++++ (<50 nM = ++++) | ++++ (<50 nM = ++++) | < 30 | < 50 | – | – | – | – | – | – | CCC1(c2ncccn2)CCN(c2ccc(-c3nc(-c4cnn([C@H]5CC[C@H](N6CCC(c7ccc(N[C@H]8CCC(=O)NC8=O)cc7F)CC6)CC5)c4)cn4ncc(C#N)c34)cn2)CC1 (single isomer, unassigned) [Compound 139]
